From PMC5515969, “Effects of 31 FDA approved small-molecule kinase inhibitors on isolated rat liver mitochondria” (Archives of Toxicology, 2016)
Where a name gives a salt, the structure may show the parent alone. Read-outs that look alike come from different tables or passages of the source. Marks after values point to notes of the source that are not given here.

Assays:
[1] = test system: isolated rat liver mitochondria; assay: Mitochondrial oxygen consumption (glutamate/malate or succinate driven, state 4 and state 3); format: biochemical; conditions: DMSO treated samples set as 1; for State 3 respiration driven by succinate at 10XCmax: key: 0 indicates that the drug had no effects (negative); for State 3 respiration driven by succinate at 1XCmax: key: 0 indicates that the drug had no effects (negative)
Experimental: Rats were anesthetized by an intraperitoneal injection of Nembutal and the liver perfused with PBS to remove the blood. The liver was then cut into small pieces and homogenized using a Dounce type homogenizer in the ice-cold isolation buffer (IB) containing 200 mM sucrose, 10 mM Tris-MOPS, 1 mM EGTA (pH 7.4). The sample was then centrifuged at 600g for 10 min. The supernatant was further centrifuged at 7500g for 10 min, and the pellets was washed once with the IB and centrifuged again at 7500g for 10 min to collect mitochondria. […] Before drug treatment, the protein concentration was adjusted to 1 mg/ml using appropriate buffer. […] Briefly, mitochondrial and cytosolic fractions from four different preparations using four rats were diluted using the Laemmli protein loading buffer and subject to SDS-PAGE with 4–20% gradient gels. The proteins were blotted to PVDF membranes and detected using antibodies against GAPDH, ATP5A, UQCRC2, SDHB, and NDUFB8.
The aliquoted stock solutions were kept for less than one month and each tube was used only once. The KIs were added to the mitochondria at 1:1000 dilutions. […] The Cmax data were from clinical trials which used FDA recommend dosages, route of administration, and duration. […] The final concentration of DMSO for drug treatment was always 0.1%, and control treatments were 0.1% DMSO.
Briefly, mitochondria were incubated with the KIs for 5 min, and then split evenly and loaded to the sample tubes of two Oxytherm systems (Hansatech Instruments Ltd), with one system used for measuring glutamate/malate driven respiration and the other succinate-driven respiration, both of which were defined as state 4 respiration. After 3 min, ADP was added to measure the maximal oxygen consumption rate, which was defined as state 3 respiration. […] The oxygen consumption rate of DMSO-treated samples (controls) was set as 1.

[2] = test system: RCC I; assay: RCC I activity in submitochondrial particles; format: biochemical, rat; parameters: key to RCC I at 10XCmax / RCC I at 100XCmax / RCC I at 50XCmax / RCC I at 30XCmax / RCC I at 20XCmax: activity relative to DMSO-treated controls (control set as 1 = 100%); conditions: 10XCmax; relative to DMSO treated samples
Experimental: (§1) KIs were incubated with submitochondrial particles (1 mg/ml) for 15 min and then RCC I–V activities measured. […] The activities of DMSO-treated samples (controls) were set as 1. […] The difference between the activity from rotenone-containing buffer and rotenone-absent buffer was considered as RCC I activity. […] For measuring RCC I/V and II activity, the changes in absorbance at 340 and 600 nm, respectively, were determined every 1 min for 6 min. For measuring RCC III and RCC IV, the changes in absorbance at 550 nm were measured every 10 s for 2 min.

[3] = target: T1, RCC II (Rattus norvegicus, UniProt P21913+Q641Z9+Q6PCT8+Q920L2); assay: RCC II activity in submitochondrial particles; format: biochemical; parameters: key: activity relative to DMSO-treated controls (control set as 1 = 100%); conditions: relative to DMSO treated samples
T1 construct: Submitochondrial particles were prepared by subjecting the intact mitochondria to three successive freeze–thaw cycles; from tissue; host or cells: rat liver mitochondria, used as submitochondrial particles
T1 sequence (Q920L2 35-656): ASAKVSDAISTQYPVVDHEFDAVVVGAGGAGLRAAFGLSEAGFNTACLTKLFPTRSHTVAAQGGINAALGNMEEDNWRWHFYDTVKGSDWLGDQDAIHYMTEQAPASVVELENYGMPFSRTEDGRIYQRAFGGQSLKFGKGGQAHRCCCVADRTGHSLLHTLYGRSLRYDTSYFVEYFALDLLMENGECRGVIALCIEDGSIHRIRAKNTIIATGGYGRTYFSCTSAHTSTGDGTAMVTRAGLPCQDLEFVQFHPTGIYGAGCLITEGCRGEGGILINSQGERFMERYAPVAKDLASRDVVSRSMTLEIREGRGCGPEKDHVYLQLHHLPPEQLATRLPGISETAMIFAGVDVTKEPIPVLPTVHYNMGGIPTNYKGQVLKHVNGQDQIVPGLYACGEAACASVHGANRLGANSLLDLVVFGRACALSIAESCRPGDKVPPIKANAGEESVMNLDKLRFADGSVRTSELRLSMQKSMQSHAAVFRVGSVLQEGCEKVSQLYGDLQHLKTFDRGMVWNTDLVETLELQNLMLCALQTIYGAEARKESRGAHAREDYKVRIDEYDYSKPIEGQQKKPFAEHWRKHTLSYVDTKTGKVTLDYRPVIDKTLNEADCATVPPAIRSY
T1 sequence (P21913 31-282): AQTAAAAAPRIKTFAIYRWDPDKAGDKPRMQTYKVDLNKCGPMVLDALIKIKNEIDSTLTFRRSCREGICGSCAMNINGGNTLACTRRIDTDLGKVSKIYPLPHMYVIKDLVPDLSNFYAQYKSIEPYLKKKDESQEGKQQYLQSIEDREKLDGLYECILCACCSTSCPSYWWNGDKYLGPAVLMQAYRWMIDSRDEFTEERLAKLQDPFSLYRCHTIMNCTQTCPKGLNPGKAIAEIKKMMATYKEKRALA
T1 sequence (Q641Z9 1-169): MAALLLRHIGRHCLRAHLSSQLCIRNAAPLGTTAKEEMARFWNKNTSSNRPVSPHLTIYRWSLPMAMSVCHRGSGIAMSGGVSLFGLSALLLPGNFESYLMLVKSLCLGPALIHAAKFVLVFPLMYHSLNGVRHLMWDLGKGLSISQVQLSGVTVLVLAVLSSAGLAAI
T1 sequence (Q6PCT8 57-159): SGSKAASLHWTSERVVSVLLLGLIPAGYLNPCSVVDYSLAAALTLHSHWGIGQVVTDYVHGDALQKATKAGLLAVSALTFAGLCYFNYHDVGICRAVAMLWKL
Experimental: as §1

[4] = test system: RCC V; assay: RCC V activity in submitochondrial particles; format: biochemical, rat; conditions: relative to DMSO treated samples; for RCC V at 5XCmax: key: 0 indicates that the drug had no effects (negative)
Experimental: as §1

[5] = test system: isolated rat liver mitochondria; assay: Mitochondrial inner membrane potential (MMP), Rhodamine 123; format: biochemical; conditions: difference in signal between KI and DMSO treated samples at the end of experiments
From the text: Fig. 3 KI effects on mitochondrial inner membrane potential (MMP). […] In a, c, data are means and standard derivations from three separate experiments. *p < 0.05 as compared to DMSO-treated samples at the end of experiments. In b, data are means of two independent experiments

[6] = test system: isolated rat liver mitochondria; assay: Mitochondrial swelling (absorbance at 535 nm); format: biochemical; conditions: difference in signal between KI and DMSO treated samples at the end of experiments; for Swelling 5XCmax: key: 0 indicates that the drug had no effects (negative)
[7] = test system: isolated rat liver mitochondria; conditions: positive control alamethicin treated samples
[8] = parameters: method as in product labeling; conditions: ref product labeling, cited from earlier work; for Labeling for cardiotoxicity: BBW: black box warning, W&P: Warnings and Precautions
[9] = therapeutic maximal blood concentration, ref product labeling, cited from earlier work
[10] = cited from earlier work; for DILI potential (based on labeling): 1 = DILI positive, 0 = negative
[11] = test system: isolated rat liver mitochondria; assay: Mitochondrial ROS production (CM-H2DCFDA); conditions: DMSO treated samples set as 1

CS(=O)(=O)CCNCc1ccc(-c2ccc3ncnc(Nc4ccc(OCc5cccc(F)c5)c(Cl)c4)c3c2)o1 [lapatinib ditosylate monohydrate]
State 3 respiration driven by succinate at 1XCmax ([1]; 1XCmax): 0
State 4 respiration driven by succinate at 1XCmax ([1]; 1XCmax): 0
State 3 respiration driven by succinate at 2.5XCmax ([1]; 2.5XCmax): 0
State 4 respiration driven by succinate at 2.5XCmax ([1]; 2.5XCmax): 0
State 3 respiration driven by succinate at 5XCmax ([1]; 5XCmax): 0
State 4 respiration driven by succinate at 5XCmax ([1]; 5XCmax): 0
State 3 respiration driven by succinate at 10XCmax ([1]; 10XCmax): 0
State 4 respiration driven by succinate at 10XCmax ([1]; 10XCmax): 0
RCC I at 10XCmax [2]: 0
RCC II at 1.0XCmax [3]: 0
RCC II at 2.5XCmax [3]: 0
RCC II at 5XCmax [3]: 0
RCC II at 10XCmax [3]: 0
RCC V at 5XCmax ([4]; 5XCmax): 0
MMP measured by Rhodamine 123 at 1XCmax [5]: 0
MMP measured by Rhodamine 123 at 2.5XCmax [5]: 0
MMP measured by Rhodamine 123 at 5XCmax [5]: 0
MMP measured by Rhodamine 123 at 10XCmax [5]: 0
Swelling 1XCmax [6]: 0
Swelling 2.5XCmax [6]: 0
Swelling 5XCmax ([6]; 5XCmax): 0
Swelling 10XCmax ([6]; 10XCmax): 0
Cytochrome c release 1XCmax [7]: 0
Cytochrome c release 2.5XCmax [7]: 0
Cytochrome c release 5XCmax [7]: 0
Cytochrome c release 10XCmax ([7]; 10XCmax): 7.91±2.25 percentage of the positive control group
Labeling for cardiotoxicity [8]: W&P: Decreased Left Ventricular Ejection Fraction; QT Prolongation
Potential for cardiotoxicity (based on labeling) [8]: 1
Cmax [9]: 2430 ng/mL
DILI potential (based on labeling) ([10]; ref product labeling): 1
Labeling for DILI ([10]; in vivo): BBW: fatal DILI
ROS measured by CM-H2DCFDA at 1XCmax [11]: 0
ROS measured by CM-H2DCFDA at 2.5XCmax [11]: 0
ROS measured by CM-H2DCFDA at 5XCmax [11]: 0
ROS measured by CM-H2DCFDA at 10XCmax [11]: 0

CNC(=O)c1cc(Oc2ccc(NC(=O)Nc3ccc(Cl)c(C(F)(F)F)c3)cc2)ccn1 [sorafenib tosylate]
State 3 respiration driven by succinate at 1XCmax ([1]; 1XCmax): 0
State 4 respiration driven by glutamate/malate at 1XCmax ([1]; 1XCmax): 2.55±0.27
State 4 respiration driven by succinate at 1XCmax ([1]; 1XCmax): 1.50±0.21
State 3 respiration driven by glutamate/malate at 2.5XCmax ([1]; 2.5XCmax): 1.57±0.06
State 3 respiration driven by succinate at 2.5XCmax ([1]; 2.5XCmax): 0.62±0.05
State 4 respiration driven by glutamate/malate at 2.5XCmax ([1]; 2.5XCmax): 4.92±0.09
State 4 respiration driven by succinate at 2.5XCmax ([1]; 2.5XCmax): 1.43±0.06
State 3 respiration driven by succinate at 5XCmax ([1]; 5XCmax): 0.40±0.01
State 4 respiration driven by glutamate/malate at 5XCmax ([1]; 5XCmax): 3.69±0.12
State 4 respiration driven by succinate at 5XCmax ([1]; 5XCmax): 0
State 3 respiration driven by succinate at 10XCmax ([1]; 10XCmax): 0
State 4 respiration driven by glutamate/malate at 10XCmax ([1]; 10XCmax): 5.00±1.92
State 4 respiration driven by succinate at 10XCmax ([1]; 10XCmax): 3.34±0.45
RCC I at 10XCmax [2]: 0
RCC II at 1.0XCmax [3]: 0
RCC II at 2.5XCmax [3]: 0
RCC II at 5XCmax [3]: 0
RCC II at 10XCmax [3]: 0
RCC V at 10XCmax ([4]; 10XCmax): 65.55±6.34
MMP measured by Rhodamine 123 at 1XCmax [5]: 4037±631*
MMP measured by Rhodamine 123 at 2.5XCmax [5]: 4075±739*
MMP measured by Rhodamine 123 at 5XCmax [5]: 3781±744*
MMP measured by Rhodamine 123 at 10XCmax [5]: 3380±680*
Swelling 1XCmax [6]: 0
Swelling 2.5XCmax [6]: 0.29±0.02
Cytochrome c release 1XCmax [7]: 0
Cytochrome c release 2.5XCmax [7]: 0
Cytochrome c release 5XCmax [7]: 12.12±5.17 percentage of the positive control group
Labeling for cardiotoxicity [8]: W&P: Cardiac Ischemia and/or Infarction; QT Interval Prolongation
Potential for cardiotoxicity (based on labeling) [8]: 1
Cmax ([9]; read-out: Cmax at µM): 4.3 µM
DILI potential (based on labeling) ([10]; ref product labeling): 1
Labeling for DILI ([10]; BBW: black box warning, W&P: Warnings and Precautions, ref product labeling): W&P: fatal DILI
ROS measured by CM-H2DCFDA at 1XCmax [11]: 0
ROS measured by CM-H2DCFDA at 2.5XCmax [11]: 0
ROS measured by CM-H2DCFDA at 5XCmax [11]: 0
ROS measured by CM-H2DCFDA at 10XCmax [11]: 0
